Measured values from patent US20250034135A1, “ANTI-APOPTOTIC PROTEIN BCL-2 INHIBITOR, PHARMACEUTICAL COMPOSITION AND USES THEREOF” (HANGZHOU HEALZEN THERAPEUTICS CO., LTD., priority 2021, published 2025).

Assays:
human CYP3A4 enzyme = human CYP3A4 enzyme (Homo sapiens (Human), UniProt P08684); assay: CYP3A4 enzyme inhibitory activity (Vivid CYP3A4 Green screening kit); settings: read-out: CYP3A4 (IC50); Vivid CYP3A4 Green screening kit
RS4; 11 cells = assay: Tumor proliferation inhibitory activity test (MTS) on RS4; 11; type: cell-based; settings: Homo sapiens, RS4-11, 72 h, 3 days incubation
Summary of the method: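 RS4;11 cells were exposed to serially diluted compound (0.2% DMSO control) for 3 days at 37 °C/5% CO2, followed by MTS for 3–4 h. Read-out was OD490−OD690, and inhibition was calculated relative to the DMSO and blank wells.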

BCL2 = BCL2 (Homo sapiens (Human), UniProt P10415); assay: Molecular level activity test of anti-apoptotic protein BCL2 (HTRF, binding to Bim peptide); settings: HTRF, binding of BCL2 to Bim peptide; read-out: BCL2 nM (inhibitory activity, IC50)
Summary of the method: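 Compound (2% DMSO) was mixed with His-tagged recombinant BCL2 and biotinylated Bim peptide for 1 h. Detection used anti-His antibody plus streptavidin-XL665 for 4 h at room temperature, read by time-resolved fluorescence.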

BCL2 (D103Y) = BCL2 (D103Y) (Homo sapiens (Human), UniProt P10415, D103Y); assay: Molecular level activity test of BCL2 (D103Y) (HTRF, binding to Bim peptide); settings: read-out: BCL-2 (D103Y) (nM) (inhibitory activity, IC50)
Summary of the method: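 His-tagged recombinant protein mixed with biotinylated BIM peptide and compound (2% DMSO), reacted 1 h. Anti-His and streptavidin-XL665 detection reagents then added and incubated 4 h at room temperature before HTRF read-out of binding inhibition.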

BCL2 (G101V) = BCL2 (G101V) (Homo sapiens (Human), UniProt P10415, G101V); assay: Molecular level activity test of anti-apoptotic protein BCL2 (G101V) (HTRF, binding to Bim peptide); settings: inhibition of BCL2 (G101V) binding to Bim peptide, read-out: BCL-2 (G101V)
Summary of the method: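 His-tagged recombinant BCL2 (G101V) incubated 1 h with biotin-BIM peptide and compound (2% DMSO), then anti-His and streptavidin-XL665 detection reagents added for 4 h at room temperature. HTRF signal reflects compound effect on BCL2–BIM binding.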

Chain of human CYP3A4 enzyme (P08684 whole entry): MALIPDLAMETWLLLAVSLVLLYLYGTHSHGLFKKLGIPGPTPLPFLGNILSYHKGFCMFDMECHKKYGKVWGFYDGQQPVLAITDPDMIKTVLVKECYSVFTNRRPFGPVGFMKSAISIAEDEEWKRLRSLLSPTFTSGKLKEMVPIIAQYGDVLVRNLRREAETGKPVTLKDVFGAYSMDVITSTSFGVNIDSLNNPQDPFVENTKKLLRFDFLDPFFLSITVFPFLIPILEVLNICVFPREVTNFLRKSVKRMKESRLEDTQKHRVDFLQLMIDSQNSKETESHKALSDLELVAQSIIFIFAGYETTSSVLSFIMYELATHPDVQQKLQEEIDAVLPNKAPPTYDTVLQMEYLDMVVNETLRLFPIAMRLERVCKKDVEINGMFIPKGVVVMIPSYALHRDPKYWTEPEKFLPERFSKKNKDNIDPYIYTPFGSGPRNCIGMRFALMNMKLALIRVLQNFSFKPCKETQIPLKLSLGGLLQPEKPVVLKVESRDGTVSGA

Row | Structure (SMILES) | IC50 (human CYP3A4 enzyme) | IC50 (RS4; 11 cells) | IC50 (BCL2) | IC50 (BCL2 (D103Y)) | IC50 (BCL2 (G101V))
1 | COc1ccc(CN2CCN(C3CC4(CCN(c5ccc(C(=O)NS(=O)(=O)c6cc([N+](=O)[O-])c(NC[C@H]7CC[C@](C)(O)CC7)c7[nH]cnc67)c(Oc6cnc7[nH]ccc7c6)c5)CC4)C3)[C@H](c3ccccc3C(C)C)C2)cc1 [compound 259, 2-((1H-pyrrolo[2,3-b]pyrid-5-yl)oxy)-N-((7-((((1r,4r)-4-hydroxy-4-methylcyclohexyl)methyl)amino)-6-nitro-1H-benzo[d]imidazol-4-yl)sulfonyl)-4-(2-((R)-2-(2-isopropylphenyl)-4-(4-methoxybenzyl)piperazin-1-yl)-7-azaspiro[3.5]non-7-yl)benzamide] | > 20000 nM | < 0.5 nM | < 10 nM | < 10 nM | < 10 nM
2 | COc1ccc(CN2CCN(C3CC4(CCN(c5cc(Oc6cnc7[nH]ccc7c6)c(C(=O)NS(=O)(=O)c6ccc(NCC7(F)CCN(C8COC8)CC7)c([N+](=O)[O-])c6)cn5)CC4)C3)C(c3ccccc3C(C)C)C2)cc1 (stereo not shown) [compound 053, 4-((1H-pyrrolo[2,3-b]pyrid-5-yl)oxy)-N-((4-(((4-fluoro-1-(oxocyclobut-3-yl)piperid-4-yl)methyl)amino)-3-nitrophenyl)sulfonyl)-6-(2-(2-(2-isopropylphenyl)-4-(4-methoxybenzyl)piperazin-1-yl)-7-azaspiro[3.5]non-7-yl) nicotinamide] | > 20000 nM | < 0.5 nM | < 10 nM | < 10 nM | < 10 nM
3 | COc1ccc(CN2CCN(C3CC4(CCN(c5cc(Oc6cnc7[nH]ccc7c6)c(C(=O)NS(=O)(=O)c6cc([N+](=O)[O-])c(NCC7(F)CCOCC7)c7[nH]cnc67)cc5F)CC4)C3)[C@H](c3ccccc3C(C)C)C2)cc1 [compound 264, (R)-2-((1H-pyrrolo[2,3-b]pyrid-5-yl)oxy)-5-fluoro-N-((7-(((4-fluorotetrahydro-2H-pyran-4-yl)methyl)amino)-6-nitro-1H-benzo[d]imidazol-4-yl)sulfonyl)-4-(2-(2-(2-isopropylphenyl)-4-(4-methoxybenzyl)piperazin-1-yl)-7-azaspiro[3.5]non-7-yl)benzamide] | > 20000 nM | 0.5 to 1 nM | < 10 nM | < 10 nM | < 10 nM
4 | COc1ccc(CN2CCN(C3CC4(CCN(c5cc(Oc6cnc7[nH]ccc7c6)c(C(=O)NS(=O)(=O)c6ccc(NCC7CCOCC7)c([N+](=O)[O-])c6)cn5)CC4)C3)[C@H](c3ccccc3C(C)C)C2)cc1 [compound 257, (R)-4-((1H-pyrrolo[2,3-b]pyrid-5-yl)oxy)-6-(2-(2-(2-isopropylphenyl)-4-(4-methoxybenzyl)piperazin-1-yl)-7-azaspiro[3.5]non-7-yl)-N-((3-nitro-4-(((tetrahydro-2H-pyran-4-yl)methyl)amino)phenyl)sulfonyl) nicotinamide] | > 20000 nM | < 0.5 nM | < 10 nM | < 10 nM | < 10 nM
5 | COc1ccc(CN2CCN(C3CC4(CCN(c5cc(Oc6cnc7[nH]ccc7c6)c(C(=O)NS(=O)(=O)c6ccc(NCC7(F)CCOCC7)c([N+](=O)[O-])c6)cn5)CC4)C3)[C@H](c3ccccc3C(C)C)C2)cc1 [compound 258, (R)-4-((1H-pyrrolo[2,3-b]pyrid-5-yl)oxy)-N-((4-(((4-fluorotetrahydro-2H-pyran-4-yl)methyl)amino)-3-nitrophenyl)sulfonyl)-6-(2-(2-(2-isopropylphenyl)-4-(4-methoxybenzyl)piperazin-1-yl)-7-azaspiro[3.5]non-7-yl) nicotinamide] | > 20000 nM | < 0.5 nM | < 10 nM | < 10 nM | < 10 nM
